The values below come from patent US20220227720A1, “DHODH INHIBITORS AND THEIR USE AS ANTIVIRAL AGENTS” (priority 2019, published 2022).

One series concerns TOSV. The experiment in a line: microbe, parasite or virus in culture. The format is cell-based, Toscana virus. Particulars: Toscana virus, Vero C1008, read-out: IC50 (TOSV).
A further series concerns HAZV. The experiment in a line: microbe, parasite or virus in culture. The format is cell-based. Particulars: Hazara virus, Vero C1008, read-out: IC50 HAZV.
Another series concerns TAHV. Nature of the series: microbe, parasite or virus in culture. The format is cell-based. Particulars: Tahyna virus, Vero C1008, read-out: IC50 TAHV.
For series [1], the system named is RVFV. Nature of the series: microbe, parasite or virus in culture. The format is cell-based. The note with it: Rift Valley fever virus, Vero C1008, read-out: IC50 RVFV.
Series [2] deals with YFV. Nature of the series: microbe, parasite or virus in culture. The format is cell-based. Particulars: Yellow fever virus, Vero C1008, read-out: IC50 YFV.
Another series concerns DENV. Nature of the series: Virus yield reduction assay, DENV in Vero E6 cells. The note with it: Dengue virus, Vero C1008; Simian Vero E6 cells; FLAVI virus family. In kind it is cell-based.
For series [3], the system named is TBEV. Nature of the series: microbe, parasite or virus in culture. The format is cell-based. The note with it: Tick-borne encephalitis virus, Vero C1008, read-out: IC50 TBEV.
The test system of another series is ZIKV. Nature of the series: Virus yield reduction assay, ZIKV in Vero E6 cells. The format is cell-based. The note with it: Zika virus, Vero C1008; Simian Vero E6 cells; FLAVI virus family.
Series [4] relates to VEEV. Nature of the series: microbe, parasite or virus in culture. The format is cell-based. Particulars: Venezuelan equine encephalitis virus, Vero C1008, read-out: IC50 VEEV.
The test system of series [5] is RVFV. Nature of the series: microbe, parasite or virus in culture. The format is cell-based. The note with it: Rift Valley fever virus, L929, in Mus musculus, read-out: IC50 RVFV.
The subject of series [6] is TBEV. Nature of the series: microbe, parasite or virus in culture. Particulars: Tick-borne encephalitis virus, L929, in Mus musculus, read-out: IC50 TBEV. The format is cell-based.
Series [7] deals with VEEV. The experiment in a line: microbe, parasite or virus in culture. In kind it is cell-based. The note with it: Venezuelan equine encephalitis virus, L929, in Mus musculus, read-out: IC50 VEEV.
For series [8], the system named is RVFV. Nature of the series: microbe, parasite or virus in culture. In kind it is cell-based. Particulars: Rift Valley fever virus, SW13, read-out: IC50 RVFV.
For series [9], the system named is TBEV. The experiment in a line: microbe, parasite or virus in culture. The format is cell-based. The note with it: Tick-borne encephalitis virus, SW13, read-out: IC50 TBEV.
The subject of series [10] is VEEV. The experiment in a line: microbe, parasite or virus in culture. The format is cell-based. Particulars: Venezuelan equine encephalitis virus, SW13, read-out: IC50 VEEV.
Series [11] deals with RVFV. Nature of the series: microbe, parasite or virus in culture. The note with it: Rift Valley fever virus, HEK293, read-out: IC50 RVFV. The format is cell-based.
In series [12] the test system is VEEV. Nature of the series: microbe, parasite or virus in culture. The format is cell-based. Particulars: Venezuelan equine encephalitis virus, HEK293, read-out: IC50 VEEV.
A further series in a line: Plasma stability. Particulars: 1 μm, 37° C., mouse plasma diluted with 1 volume of PBS pH 7.4.
The nature of a further series: Plasma protein binding. Particulars: mouse, plasma diluted with 1 volume of PBS pH 7.4, pH 7.4.
The next series is described as follows: Solubility in PBS pH 7.4. The note with it: PBS pH 7.4, 20 °C, pH 7.4, aqueous buffer.
Series [13] is described as follows: Log D (PBS pH 7.4/octanol).
Series [14] can be described thus: Hydrolysis study in mouse liver extract. Particulars: FIG. 1, FIG. 2.
The nature of series [15]: Cytotoxicity assay (CellTiter-Blue), Vero E6 cells. Particulars: monkey (simian), Vero E6 cells, CC50, Simian Vero E6 cells; value repeated under each virus.
Series [16] has as its system RVFV. The experiment in a line: microbe, parasite or virus in culture. In kind it is cell-based. Particulars: Rift Valley fever virus, BHK-21, in Mesocricetus auratus, read-out: IC50 RVFV.
Series [17] has as its system VEEV. Nature of the series: microbe, parasite or virus in culture. The format is cell-based. The note with it: Venezuelan equine encephalitis virus, BHK-21, in Mesocricetus auratus, read-out: IC50 VEEV.
Series [18] is described as follows: Cytotoxicity assay, L929 cells. The note with it: mouse.
The nature of series [19]: Cytotoxicity assay, SW13 cells. Particulars: human.
Series [20] can be described thus: Cytotoxicity assay, BHK-21 cells. The note with it: hamster, BHK-21 cells, CC50, Hamster BHK-21 cells; value repeated under each virus.
The nature of series [21]: Cytotoxicity assay (CellTiter-Blue), HEK-293 cells. The note with it: human.
Series [22] relates to YFV. Nature of the series: microbe, parasite or virus in culture. The format is cell-based. Particulars: Yellow fever virus, BHK-21, in Mesocricetus auratus, read-out: IC50 YFV.
Series [23] concerns TBEV. The experiment in a line: microbe, parasite or virus in culture. The note with it: Tick-borne encephalitis virus, HEK293, read-out: IC50 TBEV. In kind it is cell-based.
The nature of series [24]: Hepatic microsome stability. Particulars: 1 μm, 37° C., 0.5 mg/mL microsomes of mouse liver; cofactor: NADPH.
The subject of a further series is BHK-21. The experiment in a line: Cytotoxicity assay, BHK-21 cells. The note with it: Hamster BHK-21 cells; value repeated under each virus.

Values after ≈ are worked out from the molar mass of the structure shown. Read-outs that look alike come from different tables or passages of the source.

Consider `CCC(C)c1ccccc1OCCCC(=O)Nc1ccccc1C(=O)O` (racemic) [Example 3], for which the half-maximal inhibitory concentration (IC50) is 70 ± 10 nM with TOSV; 110 nM with HAZV; 40 nM in the series on TAHV; 160 nM in the series with RVFV [1]; 110 nM in the series on YFV [2]; 110 nM with DENV. The IC50 with TBEV [3] was determined as 80 nM; in the series with ZIKV, 110 nM; in the series with VEEV [4], 30 nM; in the series on RVFV [5], 170 nM; in the series on TBEV [6], 300 nM; with VEEV [7], 600 nM. Further, the IC50 with RVFV [8] came out at 50 nM; in the series with TBEV [9], 100 nM; in the series with VEEV [10], 130 nM; in the series with RVFV [11], 15 nM; in the series on VEEV [12], 50 nM. The “Plasma stability [% remaining at 2 h]” value in “Plasma stability” came out at 85 ± 4 % remaining at 2 h. This compound gave a fraction unbound at 1 μM in the series “Plasma protein binding” of 0.01. This compound registered a solubility in “Solubility in PBS pH 7.4” of 1540 ± 50 µM (≈ 547 µg/mL). This compound also gave a logD in [13] of 2.59 ± 0.03. The “Hydrolysis in mouse liver extract (amide bond stability)” value in series [14] was “cleavage of the amide bond”. In [15], this compound showed a CC50 at 4 days of 18500 ± 1500 nM.

For the compound `Cc1ccc(NC(=O)COc2ccccc2Cc2ccccc2)c(C(=O)O)c1` [Example 1], the IC50 in the series with TOSV is 90 nM; in the series on HAZV it was 50 nM; with TAHV, 170 nM; with RVFV [1], 90 nM; in the series with YFV [2] it was 200 nM; in the series on DENV, 190 nM. Also, the IC50 in the series with TBEV [3] came to 220 nM; in the series with VEEV [4], 70 nM; in the series with RVFV [5], 40 nM; in the series on TBEV [6], 80 nM; with RVFV [16] it was 700 ± 30 nM; with VEEV [17], 360 nM. Besides, the IC50 worked out at 280 nM in the series on RVFV [8], 670 nM in the series on TBEV [9], 100 nM in the series on VEEV [10] and 40 ± 20 nM in the series on RVFV [11]. For the same compound, the “Plasma stability [% remaining at 2 h]” value in “Plasma stability” was 75 ± 0 % remaining at 2 h. In “Plasma protein binding”, this compound had a fraction unbound at 1 μM of 0.01. Also, the solubility in the series “Solubility in PBS pH 7.4” worked out at 167 ± 7 µM (≈ 62.7 µg/mL). The logD in series [13] stood at 2.62 ± 0.03. The CC50 worked out at 60000 nM in series [18], 60000 nM in series [19] and 140000 nM in series [20]. In series [15], this compound registered a half-maximal cytotoxic concentration (CC50) at 4 days of 60000 ± 15000 nM. The compound also displayed a CC50 at 3 days in [21] of 80000 nM.

With `CCCCCc1ccc(C#Cc2ccc(NC(=O)C(C)C)c(C(=O)O)c2)cc1` [Example 9, 2-Isobutyramido-5-((4-pentylphenyl)ethynyl)benzoic acid], the IC50 is 10 nM in the series with TOSV; 12 nM in the series on HAZV; 10 nM in the series on RVFV [1]; 16 nM in the series with YFV [2]; 23 nM in the series with DENV; 11.7 nM in the series on TBEV [3]. The IC50 in the series on ZIKV came out at 23 nM; in the series with VEEV [4], 10.7 nM; in the series on RVFV [16], 43 nM; in the series on YFV [22] it was 55 nM; in the series on RVFV [8], 11 nM; in the series with TBEV [9], 14 nM. Moreover, the IC50 was 14 nM with VEEV [10], less than 1.6 nM in the series on RVFV [11], 4.4 nM in the series on TBEV [23] and 1.5 nM with VEEV [12]. Also, in the series “Plasma stability”, the “Plasma stability [% remaining at 2 h]” value turned out to be 98 ± 3 % remaining at 2 h. This compound showed a solubility in “Solubility in PBS pH 7.4” of 13 ± 6 µM (≈ 4.91 µg/mL). In addition, the “Hepatic microsome stability [% remaining at 1 h]” value in series [24] turned out to be 45 ± 8 % remaining at 1 h. For the same compound, the CC50 in series [19] amounted to 17000 nM; in series [20], 50000 nM; in the series on BHK-21, 55000 nM. This compound also gave a CC50 at 4 days in series [15] of 4000 nM.
